Columns and labels:
[1] = system: H22 metastatic lymph nodes; experiment: Lymph node metastasis inhibition experiment; format: in vivo, Kunming mouse; conditions: popliteal lymph nodes
Protocol: Milky white and thick ascites is extracted from the H22 tumor-bearing mice, the concentration is adjusted to be 3×10^7 cells/mL, 0.05 mL of cell suspension (about 1.5×10^6 cells) is inoculated subcutaneously into the left hind foot pads of each Kunming mouse, and thus a lymph node metastasis mouse model is obtained. The mice are treated when the diameter of the tumor reaches 6-8 mm and there is no ulcer and necrosis. The mice are randomly divided into four groups (10 mice per group): a negative control group (0.9% sodium chloride injection), a nanocarbon control group, an iron preparation control group and a nanocarbon-iron suspension experimental group. 10 days after inoculation, the mice are killed, and popliteal lymph nodes are collected, weighed and fixed for pathological examination.

[2] = system: TPC-1 thyroid cancer cells; experiment: Cell experiment, cell survival rate; format: cell-based; conditions: 48 h
Protocol: (§1) Cells growing in a log phase are collected, the concentration of the cell suspension is adjusted, 100 μL of cell suspension is added to each well and the cells are plated (edge wells are filled with sterile PBS) at a density of 1×10^3-10^4 cells/well. The cells are incubated for 24 hours at 37° C. under the condition of 5% CO2, a nanocarbon-iron solution having a concentration gradient (nanocarbon content: 125, 62.5, 15.63 and 3.91 μg/mL; and ferric ion content: 13.65, 6.83, 1.71 and 0.43 μg/mL) is added, and three sub-wells are set. Then the cells are incubated for 48 hours at 37° C. under the condition of 5% CO2. 10 μL of CCK8 solution is added to each well and then the cells are continuously incubated for 2 hours. The absorbance of each well is measured at OD=450 nm with the microplate reader. In addition, a negative control group, nanocarbon control groups having the same concentration and iron preparation control groups having the same concentration are set.
as §1, with “and 1” for “100”, “of a 6-well plate” for “and the cells are plated (edge wells are filled with sterile PBS)”, “3×10^4” for “1×10^3-10^4”, “1.71,” for “1.71 and”, “The” for “10 μL of CCK8 solution is added to each well and then the”, “trypsinized and counted.” for “continuously incubated for 2 hours. The absorbance of each well is measured at OD=450 nm with the microplate reader.”

[3] = system: SKOV3 ovarian cancer cells; experiment: Cell experiment, cell survival rate; format: cell-based; conditions: 48 h
Protocol: as §1
as §1, with “and 1” for “100”, “of a 6-well plate” for “and the cells are plated (edge wells are filled with sterile PBS)”, “3×10^4” for “1×10^3-10^4”, “1.71,” for “1.71 and”, “The” for “10 μL of CCK8 solution is added to each well and then the”, “trypsinized and counted.” for “continuously incubated for 2 hours. The absorbance of each well is measured at OD=450 nm with the microplate reader.”

[4] = system: HCT116 colon cancer cells; experiment: Cell experiment, cell survival rate; format: cell-based; conditions: 48 h
Protocol: as §1
as §1, with “and 1” for “100”, “of a 6-well plate” for “and the cells are plated (edge wells are filled with sterile PBS)”, “3×10^4” for “1×10^3-10^4”, “1.71,” for “1.71 and”, “The” for “10 μL of CCK8 solution is added to each well and then the”, “trypsinized and counted.” for “continuously incubated for 2 hours. The absorbance of each well is measured at OD=450 nm with the microplate reader.”

[5] = system: murine liver cancer H22 cells; experiment: Cell experiment, cell survival rate; format: cell-based; conditions: 48 h
Protocol: as §1
as §1, with “and 1” for “100”, “of a 6-well plate” for “and the cells are plated (edge wells are filled with sterile PBS)”, “3×10^4” for “1×10^3-10^4”, “1.71,” for “1.71 and”, “The” for “10 μL of CCK8 solution is added to each well and then the”, “trypsinized and counted.” for “continuously incubated for 2 hours. The absorbance of each well is measured at OD=450 nm with the microplate reader.”

[6] = system: SGC-7901 stomach cancer cells; experiment: Cell experiment, cell survival rate; format: cell-based; conditions: 48 h
Protocol: as §1
as §1, with “and 1” for “100”, “of a 6-well plate” for “and the cells are plated (edge wells are filled with sterile PBS)”, “3×10^4” for “1×10^3-10^4”, “1.71,” for “1.71 and”, “The” for “10 μL of CCK8 solution is added to each well and then the”, “trypsinized and counted.” for “continuously incubated for 2 hours. The absorbance of each well is measured at OD=450 nm with the microplate reader.”

[7] = system: SMMC7721 liver cancer cells; experiment: Cell experiment, cell survival rate; format: cell-based; conditions: SMMC-7721, 48 h
Protocol: as §1
as §1, with “and 1” for “100”, “of a 6-well plate” for “and the cells are plated (edge wells are filled with sterile PBS)”, “3×10^4” for “1×10^3-10^4”, “1.71,” for “1.71 and”, “The” for “10 μL of CCK8 solution is added to each well and then the”, “trypsinized and counted.” for “continuously incubated for 2 hours. The absorbance of each well is measured at OD=450 nm with the microplate reader.”

[8] = iron preparation alone 0.43 μg/mL
[9] = iron preparation alone 1.71 μg/mL
[10] = iron preparation alone 6.83 μg/mL
[11] = iron preparation alone 13.65 μg/mL

In the case of ferrous gluconate, the “Weight of Lymph Node” value [1] is reported as 57.19 ± 15.92 mg, the “Cell Survival Rate” value [2, 8] is reported as 100% and the “Cell Survival Rate” value [2, 9] is reported as 100%. For the same substance, the “Cell Survival Rate” value [2, 10] was 100%, the “Cell Survival Rate” value [2, 11] was 98.34% and the “Cell Survival Rate” value [3, 8] was 100%. The “Cell Survival Rate” value [3, 9] was 100%, the “Cell Survival Rate” value [3, 10] was 96.47% and the “Cell Survival Rate” value [3, 11] was 97.11%. For the same substance, the “Cell Survival Rate” value [4, 8] was 100%, the “Cell Survival Rate” value [4, 9] was 100% and the “Cell Survival Rate” value [4, 10] was 100%. For the same substance, the “Cell Survival Rate” value [4, 11] was 98.67%, the “Cell Survival Rate” value [5, 8] was 100% and the “Cell Survival Rate” value [5, 9] was 100%. For the same substance, the “Cell Survival Rate” value [5, 10] was 100%, the “Cell Survival Rate” value [5, 11] was 96.14% and the “Cell Survival Rate” value [6, 8] was 100%. For the same substance, the “Cell Survival Rate” value [6, 9] was 100%, the “Cell Survival Rate” value [6, 10] was 99.48% and the “Cell Survival Rate” value [6, 11] was 97.43%. The “Cell Survival Rate” value [7, 8] was 100% and the “Cell Survival Rate” value [7, 9] was 96.12%.

From patent publication US11235976B2, “Nanocarbon-iron composite system as well as composition, preparation method and use thereof” (Chongqing Lummy Pharmaceutical Co., LTD, priority 2017, dated 2022)
